The text below walks through data of patent publication US20190060311A1, “COMPOSITIONS AND METHODS FOR TREATMENT OF VITILIGO” (ACLARIS THERAPEUTICS, INC., priority 2017, published 2019).

The test system of series [1] is autoimmune destruction of melanocytes. Conditions: pilot studies; cited from earlier work.
In series [2] the test system is destruction of melanocytes. The experiment in a line: Harris mouse model of vitiligo (adoptive transfer of TCR transgenic T cells), in-life vitiligo scoring. The following applies: both doses (50 and 100 mg/kg), oral gavage QD, scored 5 weeks after initiation of dosing. The series is classed as in vivo. The text has this:
The primary driver of vitiligo is an autoimmune attack on melanocytes, the cells which give skin its color. The initiating event(s) for this autoimmune attack is unknown, however the key cell type driving the destruction of the melanocytes is the CD8+ cytolytic T cell (CTL). A major cytokine that drives the activation/function of these CTL is IFNy, whose receptor signals via JAK1 and JAK2. Drugs that block the function of JAK1 or JAK2 would be predicted to be efficacious in reversing the autoimmune destruction of melanocytes, and this has been confirmed with pilot studies using tofacitinib (an inhibitor of JAK3/JAK1/JAK2) and ruxolitinib (an inhibitor of JAK1/JAK2). The development of novel therapeutics for treatment of vitiligo would be facilitated by an animal model of disease that specifically recapitulates the key features of the disease (IFNγ CD8+ CTL driven destruction of melanocytes). Dr. John Harris of the University of Massachusetts Medical School has developed such a model. […] Attempted induction of disease is then accomplished using a proprietary method and is measured by the degree of melanocyte destruction. […] In FIG. 1, each symbol represents an individual animal, scored 5 weeks after initiation of dosing. Statistical significance was determined with the Student's T test.

The nature of series [3]: Plasma drug levels after oral gavage in the mouse vitiligo model. The series is classed as in vivo. Conditions: oral gavage QD, post dose.
Series [4] deals with non-segmental facial vitiligo. The experiment in a line: Open-label clinical trial, topical treatment of non-segmental facial vitiligo. Type of series: in vivo. The following applies: 0.46% (w/w) topical solution twice daily; as early as 4 weeks after initiating treatment. The text has this:
Subjects with a clinical diagnosis of new onset or actively progressing non-segmental facial vitiligo or worsening of existing facial lesions within the past 6 months were enrolled in an open-label clinical trial and treated with a 0.46% (w/w) topical solution formulation of 5-((2-((4-fluoro-3-methoxy-5-methylphenyl)amino)-5-methylpyrimidin-4-yl)amino)benzo[d]oxazol-2(3H)-one hydrochloride applied twice daily for 24 weeks by the protocol-prescribed method.
It is anticipated that the treatment will be judged to be safe and tolerable.

SMILES strings stand for the structures. Where a name gives a salt, the structure may show the parent alone.

In the case of `C[C@@H]1CCN(C(=O)CC#N)C[C@@H]1N(C)c1ncnc2[nH]ccc12` [tofacitinib, 3-{(3R,4R)-4-methyl-3-[methyl-(7H-pyrrolo[2,3-d]pyrimidin-4-yl)-amino]-piperidin-1-yl}-3-oxo-propionitrile], the “efficacious in reversing the autoimmune destruction of melanocytes” value in series [1] is on record as “confirmed”.

On to `COc1cc(Nc2ncc(C)c(Nc3ccc4oc(=O)[nH]c4c3)n2)cc(C)c1F` [5-((2-((4-fluoro-3-methoxy-5-methylphenyl)amino)-5-methylpyrimidin-4-yl)amino)benzo[d]oxazol-2(3H)-one hydrochloride], for which, in series [2], the “efficacy in the model (vitiligo score, FIG. 1)” value is given as “excellent efficacy”. The figures for the “time plasma drug levels were above the EC50 for blockade of IFNγ signaling” value in series [3] (50 mg/kg) and in series [3] (100 mg/kg) were 6 h and 20 h, respectively. The “improvement of disease (pigmentation at lesion borders, repigmentation, Facial VASI index)” value in series [4] was “early improvement in their disease”.

As to `N#CC[C@H](C1CCCC1)n1cc(-c2ncnc3[nH]ccc23)cn1` [ruxolitinib, (R)-3-(4-(7H-pyrrolo[2,3-d]pyrimidin-4-yl)-1H-pyrazol-1-yl)-3-cyclopentylpropanenitrile], the “efficacious in reversing the autoimmune destruction of melanocytes” value in series [1] is “confirmed”.
